Experiments:
male NIH Swiss mice [1] = assay: Marble burying assay (with rotorod); type: in vivo, mouse; conditions: 30 min. burying session
Excerpt: Marble burying in mice has been used to model anxiety disorders including obsessive-compulsive disorders (OCD) due to ethological study of the behavior (e.g. Gyertyan I. “Analysis of the marble burying response: Marbles serve to measure digging rather than evoke burying”, Behavioural Pharmacology 6: 24-31, (1995)) and due to the pharmacological effects of clinical standards (c.f., Njung′E K. Handley S L. “Evaluation of marble-burying behavior as a model of anxiety”, Pharmacology, Biochemistry & Behavior. 38: 63-67, (1991)); Borsini F., Podhorna J., and Marazziti, D. “Do animal models of anxiety predict anxiolytic effects of antidepressants?”, Psychopharmacology 163: 121-141, (2002)). Thus, drugs used in the treatment of generalized anxiety in humans (e.g. benzodiazepines) as well as compounds used to treat OCD (e.g. SSRIs like fluoxetine) decrease burying.
House experimentally-naïve male, NIH Swiss mice (Harlan Sprague-Dawley, Indianapolis, Ind.) weighing between 28-35 g in groups of 12 for at least three days prior to testing in a vivarium with 12 hr. light and dark cycles. Conduct experiments during the light cycle in a dimly lit experimental testing room. Dose mice with vehicle or compound and, after a specified pretreatment interval (generally 30 min.), place each mouse individually on a rotorod (Ugo Basile 7650) operating at a speed of 6 revolutions/min. and observe for falling. After 2 min. on the rotorod, place the mice individually in a 17×28×12 cm high plastic tub with 5 mm sawdust shavings on the floor that are covered with 20 blue marbles (1.5 cm diameter) placed in the center. After 30 min., count the number of marbles buried (⅔ covered with sawdust). Assess the compound's effect on marble burying with Dunnett's test and the effect on rotorod performance by Fisher's exact test.
Clinically effective standard compounds suppress marble burying at doses that are devoid of motor-impairing effects as measured on the rotorod. […]

Wistar rats [2] = conditions: general statement on standards; cited from earlier work
male NIH Swiss mice [3] = assay: Nestlet shredding; type: in vivo, mouse; conditions: 30 min.
Excerpt: Mice naturally will construct nests of material available in their living environment. Since this behavior is obsessive in nature, it has been used to model OCD (Mia Li, Denise Morrow and Jeffrey M. Witkin, “Decreases in nestlet shredding of mice by serotonin uptake inhibitors: comparison with marble burying”, Psychopharmacology, submitted Jul. 14, 2003). House experimentally-naïve male, NIH Swiss mice (Harlan Sprague-Dawley, Indianapolis, Ind.) weighing between 28-35 g in groups of 12 for at least three days prior to testing in a vivarium with a 12 hr. light/dark cycle. Conduct experiments during the light cycle in an experimental room with normal overhead fluorescent lighting. Dose mice with vehicle or test compound and after a specified pretreatment interval (generally 30 min.), place the mice individually in a 17×28×12 cm high plastic tub with about 5 mm sawdust shavings on the floor along with a pre-weighed multi-ply gauze pad (51 mm square). After 30 min., weigh the remainder of the gauze pad not removed by the mouse. Determine the weight of the gauze used for nestlet construction by subtraction. Compare the results for test compound treated mice to the results for vehicle control treated mice with Dunnett's test.
Clinically effective OCD treatment standard compounds suppress nestlet shredding at doses that are devoid of motor-impairing effects as measured by the rotorod test. […]

Wistar rats [4] = assay: Schedule-induced polydipsia; type: in vivo, rat
Excerpt: Food-deprived rats exposed to intermittent presentations of food will drink amounts of water that are far in excess of their normal daily intake and in excess of their intake when given all of their food at one time (Falk J L. “Production of polydipsia in normal rats by an intermittent food schedule”, Science 133: 195-196, (1961)). This excessive behavior is persistent and has been used to model OCD.
Maintain Wistar rats on a food restricted diet (to maintain 85% free feeding weight), but with free access to water. Train the rats in a behavioral testing chamber to press a lever to receive a food pellet under a fixed interval schedule, such that the rats are rewarded with a 45 mg food pellet the first time they press a lever after a 120 second interval has elapsed. The fixed interval is then reset to 120 seconds and the process repeated. Thus, during a 90 min. test session, the rats can earn a maximum of 45 pellets. The behavioral chamber is also equipped with a water bottle that is weighed before and after the session to determine the amount of water consumed.
Administer test compounds on Tuesdays and Fridays. Determine control day performances on Thursdays. Administer compounds either orally at 60 min. before the beginning of a test session, or subcutaneously at 20 min. before the beginning of a test session. Compare the rates of lever pressing and water consumption for each animal's performance during sessions after test compound treatment with that animal's performance during control sessions, expressed as a percent of the control rate. Average the individual percent of control rates for each dose and calculate the standard error of the mean.
The in vivo efficacy of 5HT2C compounds at the 5HT2C receptor was confirmed by the prevention of effects of the 5HT2C agonists on excessive drinking by co-administration of the 5HT2C receptor antagonist, 6-chloro-5-methyl-N-(2-(2-methylpyridin-3-yl-oxy)pyridin-5-yl)aminocarbonyl)-2,3-dihydroindole.

CN(C)CCCN1c2ccccc2Sc2ccc(Cl)cc21 [chlorpromazine, reference compound]
marble burying behavior (relative to rotorod performance) (male NIH Swiss mice [1]): decreased marble burying only at doses that also disrupt rotorod performance

CN(C)CCCN1c2ccccc2CCc2ccc(Cl)cc21 [chlomipramine]
schedule-induced polydipsia, clinically effective OCD treatment standard compounds (Wistar rats [2]): suppress schedule-induced polydipsia without producing notable changes in motor patterns, food intake, or behavior the following day

C[C@H](N)Cc1ccccc1 [d-amphetamine, reference compound]
nestlet shredding (relative to motor effects, rotorod test) (male NIH Swiss mice [3]): decrease nestlet shredding only at doses that produce motoric side effects
schedule-induced polydipsia (excessive drinking) (Wistar rats [4]; food restricted rats, 90 min. test session): decreases excessive drinking only at behaviorally stimulating doses
suppression of excessive drinking with co-administration of the 5-HT2C receptor antagonist (Wistar rats [4]; rats): not prevented

CNCCC(Oc1ccc(C(F)(F)F)cc1)c1ccccc1 (stereo not shown) [fluoxetine]
schedule-induced polydipsia, clinically effective OCD treatment standard compounds (Wistar rats [2]): suppress schedule-induced polydipsia without producing notable changes in motor patterns, food intake, or behavior the following day

FC(F)(F)CNc1c(Cl)ccc2c1CCNCC2
melting point: 183 to 185.2 °C
